What was measured:
[1] = system: phosphodiesterase (PDE) from human blood platelets; test: PDE inhibition (phosphodiesterase from human blood platelets, 3H-cAMP hydrolysis); assay type: biochemical; conditions: human platelet PDE, 1 μmol/liter 3H-cAMP, pH 7.4, 15 minutes at 37° C.
Protocol: cAMP is hydrolyzed to AMP by phosphodiesterase (PDE) from various sources, including blood platelets.
The phosphodiesterase used was prepared by centrifugal extraction at 10,000 g from human blood platelets which were frozen in water and then thawed.
A quantity of 0.3 ml of a mixture containing 0.1 mol/liter of […] (pH 7.4), 3 mmols/liter of magnesium chloride, 1 mmol/liter of AMP, 1 μmol/liter of ^3 H-cAMP (specific activity about 10 MBq/μmol), PDE, and the inhibitor under investigation (water in the case of the control) was incubated for 15 minutes at 37° C. […] From a comparison of the results for inhibitor and control cases, the concentration of the respective inhibitor necessary for a 50% inhibiting effect (IC50) was calculated.

thrombocyte aggregation = test: Antithrombotic activity: collagen-induced thrombocyte aggregation in platelet-rich plasma (Born and Cross); assay type: cell-based; conditions: Homo sapiens, 50% change in optical density, ten minutes at 37° C.
Protocol: The thrombocyte aggregation is determined in platelet-rich plasma from healthy test subjects using the method of Born and Cross [J. Physiol. 170, 397 (1964)]. To inhibit coagulation, the blood is mixed with 3.14 percent of sodium citrate in a volume ratio of 1:10.
The pattern of the decrease in optical density of the platelet suspension after administration of the aggregation-initiating substance is measured photometrically and recorded. The speed of aggregation is deduced from the angle of inclination of the density curve. The point of the curve where there is the most light transmittance is used to calculate the optical density.
The quantity of collagen used is as small as possible, but sufficient to produce an irreversible reaction curve. The standard commercial collagen made by Hormonchemie of Munich is used. Before the collagen is administered, the plasma is incubated with the substance for ten minutes at 37° C.
From the measurements obtained, and EC50 is obtained graphically, relating to a 50% change in optical density by way of an inhibition of aggregation.

primary hemostasis = test: Determination of the prolongation of bleeding time in conscious mice; assay type: in vivo; conditions: Mus musculus, 1 h, 10 mg/kg oral, one hour, as compared to a control group, read-out: Prolongation of Bleeding Time after One Hour (%)
Protocol: Since, in the event of injury, the first rapid cessation of bleeding is effected by the adhesion and aggregation of the thrombocytes at the vessel wall, the functioning of the thrombocytes can easily be determined by measuring the bleeding time with a standardized injury. The normal bleeding time in humans is between 1 and 3 minutes, assuming that there are sufficient intact, effective thrombocytes. If the number of thrombocytes is normal and the bleeding time is prolonged, this signifies an abnormality in the thrombocytes. This is found in some inborn errors of thrombocyte function. If, on the other hand, it is desired to prevent spontaneous aggregation of the thrombocytes and occlusion in the arterial system by drugs, successful therapy affecting the thrombocytes should prolong the bleeding time. Therefore, with use of an antithrombotic substance, a prolongation of the bleeding time is expected. Also, there should be a normal coagulation time since the plasma coagulation system is not affected.
To measure the bleeding time, 10 mg/kg of the test compounds were administered orally to conscious mice. After one hour, 0.5 mm of the tip of the tail of each mouse was cut off, and droplets of blood were gently removed with filter paper every 30 seconds. The number of drops of blood thus obtained gives a bleeding time (5 animals per experiment).
The results in the following table represent the prolongation of the bleeding time in percent as compared to a control group.

mice = test: Acute toxicity after oral administration of a single dose; assay type: in vivo; conditions: observation period 14 days; for Approximate Acute Toxicity: groups of ten, single oral dose; for animals died: single oral dose 1000 mg
Protocol: The acute toxicity of the test compounds was determined, as a guide, in groups of ten mice, after oral administration of a single dose (observation period: 14 days): […]

SMILES	IC50 [1]	EC50 (thrombocyte aggregation)	change in vivo at 10 mg/kg (primary hemostasis)	Approximate Acute Toxicity (mice)	animals died (mice)
COc1ccc(S(=N)(=O)CCCCOc2ccc3c(c2)C(C)(C)OC(=O)N3)cc1OC (centres unmarked) [O, 6-[4-(3,4-dimethoxy-phenylsulfoximino)-butoxy]-4,4-dimethyl-4H-3,1-benzoxazin-2-one]	200 nM	270 nM	> 227%	–	–
CC1(C)OC(=O)Nc2ccc(OCCCCS(=N)(=O)c3ccc(Br)cc3)cc21 (centres unmarked) [Compound I, 6-[4-(4-bromo-phenylsulfoximino)-butoxy]-4,4-dimethyl-4H-3,1-benzoxazin-2-one]	110 nM	330 nM	> 220%	–	–
Cc1ccc(S(=N)(=O)CCCCOc2ccc3c(c2)C(C)(C)OC(=O)N3)cc1 (centres unmarked) [N, 6-[4-(4-methyl-phenylsulfoximino)-butoxy]-4,4-dimethyl-4H-3,1-benzoxazin-2-one]	65 nM	220 nM	63%	–	–
CC1(C)OC(=O)Nc2ccc(OCCCCS(=N)(=O)c3ccc(Cl)c(Cl)c3)cc21 (centres unmarked) [F, 6-[4-(3,4-dichloro-phenylsulfoximino)-butoxy]-4,4-dimethyl-4H-3,1-benzoxazin-2-one]	42 nM	210 nM	> 275%	–	–
CC1(C)OC(=O)Nc2ccc(OCCCCS(=N)(=O)c3ccc(F)cc3)cc21 (centres unmarked) [H, 6-[4-(4-fluoro-phenylsulfoximino)-butoxy]-4,4-dimethyl-4H-3,1-benzoxazin-2-one]	180 nM	320 nM	> 211%	–	–
CC1(C)OC(=O)Nc2ccc(OCCCC[S+]([O-])c3ccc(C4CCCCC4)cc3)cc21 (centres unmarked) [E, 6-[4-(4-cyclohexyl-phenylsulfinyl)-butoxy]-4,4-dimethyl-4H-3,1-benzoxazin-2-one]	78 nM	320 nM	46%	1000 mg	0 out of 10 animals died
COc1ccc(S(=N)(=O)CCCCOc2ccc3c(c2)C(C)(C)OC(=O)N3)cc1 (centres unmarked) [C, 6-[4-(4-methoxy-phenylsulfoximino)-butoxy]-4,4-dimethyl-4H-3,1-benzoxazin-2-one]	130 nM	270 nM	> 241%	1000 mg	0 out of 10 animals died
CC(=O)N=S(=O)(CCCCOc1ccc2c(c1)C(C)(C)OC(=O)N2)c1cc(C(C)(C)C)c(O)c(C(C)(C)C)c1 (centres unmarked) [S, 6-[4-(3,5-di-tert.butyl-4-hydroxy-N-acetyl-phenylsulfoximino)-butoxy]-4,4-dimethyl-4H-3,1-benzoxazin-2-one]	77 nM	2200 nM	> 226%	1000 mg	0 out of 10 animals died
CC1(C)OC(=O)Nc2ccc(OCCCC[S+]([O-])c3ccc(Br)cc3)cc21 (centres unmarked) [L, 6-[4-(4-bromo-phenylsulfinyl)-butoxy]-4,4-dimethyl-4H-3,1-benzoxazin-2-one]	240 nM	420 nM	> 266%	–	–
CC1(C)OC(=O)Nc2ccc(OCCCC[S+]([O-])c3cc(Br)c(N)c(Br)c3)cc21 (centres unmarked) [P, 6-[4-(4-amino-3,5-dibromo-phenylsulfinyl)-butoxy]-4,4-dimethyl-4H-3,1-benzoxazin-2-one]	56 nM	550 nM	73%	–	–
CC1(C)OC(=O)Nc2ccc(OCCCCS(=N)(=O)c3ccc(O)cc3)cc21 (centres unmarked) [B, 6-[4-(4-hydroxy-phenylsulfoximino)-butoxy]-4,4-dimethyl-4H-3,1-benzoxazin-2-one]	230 nM	280 nM	> 263%	1000 mg	0 out of 10 animals died
Cc1ccc([S+]([O-])CCCCOc2ccc3c(c2)C(C)(C)OC(=O)N3)cc1 (centres unmarked) [D, 6-[4-(4-methyl-phenylsulfinyl)-butoxy]-4,4-dimethyl-4H-3,1-benzoxazin-2-one]	210 nM	330 nM	> 250%	1000 mg	0 out of 10 animals died
CC1(C)OC(=O)Nc2ccc(OCCCC[S+]([O-])c3ccc(Cl)cc3)cc21 (centres unmarked) [Compound A, 6-[4-(4-chloro-phenylsulfinyl)-butoxyl]-4,4-dimethyl-4H-3,1-benzoxazin-2-one]	240 nM	340 nM	> 248%	1000 mg	0 out of 10 animals died
COc1cccc(S(=N)(=O)CCCCOc2ccc3c(c2)C(C)(C)OC(=O)N3)c1 (centres unmarked) [G]	77 nM	270 nM	> 245%	–	–
Cc1ccc(S(=N)(=O)CCCCOc2cc3c(cc2Br)NC(=O)OC3(C)C)cc1 (centres unmarked) [T, 7-bromo-4,4-dimethyl-6-[4-(4-methyl-phenylsulfoximino)-butoxy]-4H-3,1-benzoxazin-2-one]	1 nM	69 nM	60%	1000 mg	0 out of 10 animals died
COc1ccc(S(=O)(CCCCOc2ccc3c(c2)C(C)(C)OC(=O)N3)=NC(C)=O)cc1OC (centres unmarked) [R, 6-[4-(3,4-dimethoxy-N-acetyl-phenylsulfoximino)-butoxy]-4,4-dimethyl-4H-3,1-benzoxazin-2-one]	710 nM	2300 nM	> 241%	1000 mg	0 out of 10 animals died
CC1(C)OC(=O)Nc2ccc(OCCCCS(=N)(=O)c3ccc(-c4ccccc4)cc3)cc21 (centres unmarked) [Q, 6-[4-(4-biphenylyl-sulfoximino)-butoxy]-4,4-dimethyl-4H-3,1-benzoxazin-2-one]	6.8 nM	250 nM	128%	–	–
Cc1ccc([S+]([O-])CCCCOc2cc3c(cc2Cl)NC(=O)OC3(C)C)cc1 (centres unmarked) [U, 7-chloro-4,4-dimethyl-6-[4-(4-methyl-phenylsulfinyl)-butoxy]-4H-3,1-benzoxazin-2-one]	3.4 nM	28 nM	> 230%	1000 mg	0 out of 10 animals died
O=C1Nc2ccc(OCCCC[S+]([O-])c3ccccc3)cc2CO1 (centres unmarked) [K, 6-(4-phenylsulfinyl-butoxy)-4H-3,1-benzoxazin-2-one]	1500 nM	1900 nM	121%	–	–
CC1(C)OC(=O)Nc2cc(Br)c(OCCCC[S+]([O-])c3ccc(Cl)c(Cl)c3)cc21 (centres unmarked) [V, 7-bromo-6-[4-(3,4-dichloro-phenylsulfinyl)-butoxy]-4,4-dimethyl-4H-3,1-benzoxazin-2-one]	3.8 nM	44 nM	100%	1000 mg	0 out of 10 animals died
Cc1cc(S(=N)(=O)CCCCOc2ccc3c(c2)C(C)(C)OC(=O)N3)ccc1Br (centres unmarked) [M, 6-[4-(4-bromo-3-methyl-phenylsulfoximino)-butoxy]-4,4-dimethyl-4H-3,1-benzoxazin-2-one]	66 nM	250 nM	100%	–	–

Source: patent US4518597A, “Substituted benzoxazin-2-ones and pharmaceutical compositions containing them” (Dr. Karl Thomae GmbH, priority 1982, dated 1985)
